Measurements taken from patent publication US9272047B2, “Use of biological surfactant as anti-inflammatory agent and tissue preservative solution” (Shaperon Inc., priority 2007, dated 2016).
Entries after “also recorded” stand apart in the source; their conditions may differ.

How the values were obtained:
[1] = system: dendritic cell-mediated T cell; experiment: Inhibition of the activation of dendritic cell-mediated T cell by E. coli LPS ([3H]-methylthymidine); assay type: cell-based, mouse
Protocol: Antigen presenting cells activated by LPS activates T cells. It was tested whether dendritic cells blocked by sodium glycocholate can activate T cells when LPS activates dendritic cells. Cells were harvested from the bone marrow of Rag2 deficient male mouse. The harvested cells were plated at 4×10^3 cells/well in a 96-well plate and treated with 1.5 ng/ml of […] and 0.75 ng/ml of interleukin-4, and then incubated for 6 days to differentiate into dendritic cells. Sodium glycocholate was reacted with LPS for 1 hour at 37° C., and then mixed with the dendritic cells. The dendritic cells were stimulated for 14 hours at 37° C., and CD3+ and CD4+ T cells separated from female Marilyn mouse having H-Y antigen-specific T cell receptor (TCR), were incubated with the dendritic cells for 72 hours. [3H]-methylthymidine was added, at 1 μCi/well, to the 96-well plate and then incubated for 18 hours. Cells were harvested from the 96-well plated and then CPM (count per minute) was measured through a beta counter.

[2] = system: interaction between fluorescein-labeled E. coli LPS and a CHO cell; experiment: Inhibition of the interaction between fluorescein (BODIPY)-labeled E. coli LPS and CHO cells, flow cytometry; assay type: cell-based, Chinese hamster; conditions: CHO cells, 7-AAD(−) living cells
Protocol: Boron dipyrromethene difluoride (BODIPY), a fluorescein, labeled E. coli LPS and CHO cells were used. BODIPY-labeled LPS was reacted with sodium glycocholate in a glass tube at 37° C. for 14 hours. 2×10^5 CHO cells mixed with the reacting solution were plated per well in a 96-well plate, and then incubated at 37° C. for 14 hours. The incubated solution was stained with 7-amino-actinomycin D (7-AAD) and then analyzed by a flow cytometer. The analysis was performed at least twice per each treatment group and the obtained data were statistically processed by t-test. The result was P<0.05 in comparison with the experimental group in which CHO cells were treated with only BODIPY-LPS.
7-AAD(−) cells were selected in order to analyze living cells. […] Therefore, it could be realized that Inflammatory inhibition efficacy of sodium glycocholate shown in the LPS-stimulated inflammatory response was due to the blocking of the interaction between LPS and cells by the action of sodium glycocholate.

[3] = system: dendritic cell-mediated T cells; experiment: Cytotoxicity to dendritic cell-mediated T cells (7AAD, FACS); assay type: cell-based, mouse
Protocol: (§1) The cytotoxicity of sodium glycocholate to the CHO cells, dendritic cells, T cells which were used in the above Examples was assayed. FACS analysis was performed after staining with 7AAD. First, sodium glycocholate was kept in vitro for 1 hour at 37° C., and then mixed with cells. CHO cells or dendritic cells were incubated for 14 hours at 37° C., and T cells which were mixed with 14 hour-incubated dendritic cells, were incubated for 4 days. Then, each cell was stained with 7AAD and cell analysis were carried out by using a flow cytometer.

NF-κB = experiment: Inhibition of E. coli LPS-stimulated NF-κB activation (CD25 expression) in 3FP CHO cells; assay type: cell-based, Chinese hamster; conditions: for nuclear transcription factor inhibition: LPS-stimulated 3FP cells, CD25 expression; for inhibition effect for LPS-stimulated CD25 expression (NF-κB activation): live 7AAD(−) LPS-stimulated 3FP cells
Protocol: In order to evaluate the inhibition efficacy for the activation of E. coli LPS-stimulated NF-κB in a CHO cell, % expression of CD 25 in the CHO cell was evaluated as the following method, and FACS analysis after staining with 7-AAD was carried out to evaluate the cytotoxicity. Bile salts were classified into 3 groups based on their solubility in different solvents, as follows:
The CHO cells expressing CD25 under the regulation of a nuclear factor (NF-κB) promoter, shown FIG. 2A, were used for this experiment. Toll-like receptor 2 (TLR2) and CD14 gene-transformed CHO cells (hereinafter referred to as “3FP cells”) were also used.
The next day, the cultured cells were treated with bile acid derivatives and LPS, and were incubated in a CO2 incubator for 15 hr at 37° C.
After stimulating the above incubated cells for 15 hr, the culture solution was centrifuged (1200 rpm, 5 min, 4° C.) to remove the culture supernatant. The precipitate was washed twice with 200 μl of FACS buffer (1×PBS containing 1% BSA and 1 mM EDTA). 20 μl of blocking solution (PBS containing 1:10 of normal mouse serum and 1:3 of anti-human CD14/CD32 (BD, 2.4G2) was added to each well and reacted on an ice for 30 min. A mixture solution of anti-human CD25-PE (1:16) and anti-human CD14-FITC (1:32) was added to the well and then reacted on the ice for 30 min. The reaction mixture was washed twice with 200 μl of FACS buffer, and then 200 μl of 7-AAD (1:20) was added to the reaction mixture. After the reaction mixture was reacted on the ice for 10 min, CD25 expression efficacy and cytotoxicity were analyzed by using a flow cytometer.
In order to analyze living cells, 7-AAD(−) cells were selected and an activation of nuclear transcription factor was confirmed by the increase of CD25 expression.

dendritic cells = experiment: Cytotoxicity to dendritic cells (7AAD, FACS); assay type: cell-based, mouse
Protocol: as §1

[4] = system: LPS-administered C57BL/6 mouse; experiment: In vivo serum cytokines in LPS-administered mice (CBA kit)
Protocol: As described in Example 7, 20 mg/kg of LPS was administered into the abdomen of mice and then 12.5 mg/kg of sodium glycocholate, and 20 mg/kg of LPS and 50 mg/kg of sodium glycocholate respectively was administered twice into the abdomen of mice, respectively. At the predetermined time, blood was collected from mouse tail and then serum was obtained by centrifugation (2400×g, 10 min). The change of cytokine expression in the serum was measured by using cytometric bead array (CBA) kit.

Structure (SMILES): C[C@H](CCC(=O)NCC(=O)[O-])[C@H]1CC[C@H]2[C@@H]3[C@H](O)C[C@@H]4C[C@H](O)CC[C@]4(C)[C@H]3C[C@H](O)[C@]12C.[Na+] [sodium glycocholate]
- inhibition of proliferation of dendritic cell-mediated T cell ([1]; 0.5 mg/ml): 104.9±3.2%
- inhibition of proliferation of dendritic cell-mediated T cell ([1]; 1 mg/ml): 105.1±3.2%
- interaction between BODIPY-LPS and the cell [2]: inhibited according to the increase of the concentration
- cytotoxicity ([3]; 1 mg/ml): no significant cytotoxicity; also recorded: dose not have cytotoxicity
- 7AAD(+) increase compared with the negative control group ([3]; 4 days): 2-4%
- nuclear transcription factor inhibition (NF-κB; 0.5 mg/ml): 21.7±0.9%
- nuclear transcription factor inhibition (NF-κB; 1 mg/ml): 88.2±1.2%
- inhibition effect for LPS-stimulated CD25 expression (NF-κB activation) (NF-κB): inhibited depending on the concentration
- inhibition effect for LPS-stimulated CD25 expression (NF-κB activation) (NF-κB; listed as sodium glycocholate hydrate): showed an inhibition effect
- cytotoxicity (dendritic cells; 1 mg/ml): no significant cytotoxicity; also recorded: dose not have cytotoxicity
- 7AAD(+) increase compared with the negative control group (dendritic cells; 14 hours): 2-4%
- IL-10 in serum [4]: significantly increased; also recorded: increase
- IFN-g in serum ([4]; after 4, 8 and 12 hours): decrease
- IL-12p70 in serum ([4]; after 4, 8 and 12 hours): decrease
- IL-6 in serum ([4]; after 12, 24 and 48 hours): remarkably decreased; also recorded: decrease
- MCP-1 in serum ([4]; after 12, 24 and 48 hours): remarkably decreased; also recorded: decrease
- TNF-α in serum ([4]; after 12, 24 and 48 hours): remarkably decreased; also recorded: decrease
